Measurements reported in US8901118B2, “Compounds and methods for kinase modulation, and indications therefor” (Plexxikon Inc., priority 2010, dated 2014).

Legend:
BCR-NTRK1 BaF3 cells = molecular target: T1, BCR-NTRK1 BaF3 cells (Homo sapiens, UniProt P04629); experiment: BaF3 BCR-NTRK1 cell proliferation assay (ATPlite); type: cell-based; details: read-out: Inhibition of Cell Proliferation IC50, BCR/BaF3 TrkA
T1 construct: fused on or other part: P11274 (Breakpoint cluster region protein)
Experimental: Compounds are assessed in a variety of cell based assays. For example BaF3 cells engineered with any of BCR-FMS, BCR-KIT, BCR-FLT3, BCR-NTRK1, BCR-NTRK2, and BCR-NTRK3, are used in cell proliferation assays to assess inhibitory activity of Fms, Kit, Flt-3, TrkA, TrkB, and TrkC, respectively. An MV-4-11 (leukemia) cell proliferation assay is used to assess inhibitory activity in Flt-3, and SKNSH (human neuroblastoma) cell proliferation assay is used to assess efficacy of Fms/Trk inhibitors. Additional cells may be assayed similarly to assess the efficacy of Fms/Trk inhibitors, such as MiaPaCa (human pancreatic cancer) and Capan-1 (human pancreatic carcinoma) cells. Reagent and assay conditions are as follows: • BaF3 cells: • Maintained in RPMI containing 10% FBS, 1% PenStrep, 1% NEAA, and 1% L-Glutamine, supplemented with 1 mg/mL G418 and 5% WEHI-CM (or recombinant murine IL-3). • Confluent cells are split 1:50 to 1:100 every 3-4 days. • MV-4-11 cells: • Maintained in Iscove's Modified Dulbecco's Medium containing 10% FBS. • Confluent cells are split 1:4 every 3-4 days. • SKNSH cells: RPMI containing 10% FBS. On day 1, cells are counted, then centrifuged in a conical tube for 5 minutes at 1000 rpm. The supernatant is removed and cells are re-suspended as follows: • BaF3: resuspend in growth media +1 mg/mL G418 (without WEHFIL-3) to 2×10^5 cells/mL. • MV-4-11: resuspend in growth media to 5×10^5 cells/mL. • SKNSH: resuspend in growth media to 2×10^4 cells/mL. The cells are plated (50 μL, 150 μL for SKNSH cells) in each well of a 96-well dish (Corning 3610) and incubated at 37° C. in 5% CO2 overnight, cells plated to a final concentration of cells as follows: • BaF3: 10,000 cells per well. • MV-4-11: 25,000 cells per well. • SKNSH: 3,000 cells per well. On day 2, compound at a maximum concentration of 5 mM is serially diluted 1:3 for a total of 8 point titration with DMSO as a control. A 1 μL aliquot of each dilution point is added to 249 μL growth media and 50 μL is added to a well containing cells, providing 10 μM compound for the maximum concentration point. The cells are incubated for 3 days at 37° C. in 5% CO2. For SKNSH cells, a 0.75 μL aliquot of appropriate dilution in DMSO is added to 150 μL of cells. On day 5, ATPlite 1 step Luminescence Assay System (Perkin Elmer #6016739) is brought to room temperature along with the cell cultures. ATPlite is added to each well as follows: • BaF3: 25 μL per well. • MV-4-11: 40 μL per well. • SKNSH: 20 μL per well. The cells are incubated at room temperature for 10 minutes, then luminescence is read on Safire reader. The measured luminescence correlates directly with cell number, such that the reading as a function of compound concentration is used to determine the IC50 value.
It is understood that the results of these assays may vary as assay conditions are varied. Inhibition levels determined under the conditions described herein represent a relative activity for the compounds tested under the specific conditions employed. The cell based assays are likely to show variability due to the complexity of the system and the sensitivity thereof to any changes in the assay conditions. […] Results for compounds that are tested and show substantially no inhibition below the highest tested concentration are represented as “-” in the tables below. In some instances, the compounds were not tested in all of the assays, or assay results were not valid, as indicated by NA in the tables below.

CYP1A2 = molecular target: T2, CYP1A2 (Homo sapiens, UniProt P05177); experiment: CYP1A2 inhibition (fluorescent substrate CEC); type: in vitro ADME; details: read-out: Cyp IC50 1A2
T2 sequence (P05177 1-516): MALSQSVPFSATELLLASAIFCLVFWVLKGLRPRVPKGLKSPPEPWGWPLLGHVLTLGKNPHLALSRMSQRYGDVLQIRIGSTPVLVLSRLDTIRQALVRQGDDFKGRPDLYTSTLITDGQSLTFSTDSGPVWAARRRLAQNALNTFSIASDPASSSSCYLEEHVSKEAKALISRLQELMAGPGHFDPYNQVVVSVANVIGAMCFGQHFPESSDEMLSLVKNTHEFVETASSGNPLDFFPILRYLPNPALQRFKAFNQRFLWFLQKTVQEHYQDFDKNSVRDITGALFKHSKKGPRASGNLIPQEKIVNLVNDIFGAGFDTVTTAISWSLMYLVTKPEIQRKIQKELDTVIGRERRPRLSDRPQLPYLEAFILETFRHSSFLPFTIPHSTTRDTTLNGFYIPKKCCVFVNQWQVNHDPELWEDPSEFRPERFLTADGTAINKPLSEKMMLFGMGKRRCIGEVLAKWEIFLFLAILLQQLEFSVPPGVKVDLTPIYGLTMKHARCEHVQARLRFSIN
Experimental: (§1) CYP (Cytochrome P450) enzymes are the major drug metabolizing enzymes present in the liver. The inhibition of CYP enzyme activity (IC50) for each of CYP1A2, CYP2C19, CYP2C9, CYP2D6, CYP3A4(BFC) and CYP3A4(BQ) is determined for compounds, where inhibition of metabolism of a known substrate leads to a decrease in the fluorescence of the metabolized product. The fluorescence of the product is monitored as a function of compound concentration. Compounds are dissolved in DMSO to a concentration of 100 mM. These are diluted 1 μL into 82 μL of acetonitrile. An 11 μL aliquot of this solution is then added to 204 μL of cofactor mix (1.3% NADPH Regeneration system Solution A, 1.04% NADPH Regeneration system Solution B from BD Biosciences, 5% acetonitrile and 0.05% DMSO). These are then serially diluted 1:1 (160 μL to 160 μL co-factor mix) for a total of 10 points. A 10 μL aliquot of this final mixture is dispensed into 384 well assay plates and incubated for 10 minutes at 37° C. […] Assay plates are incubated at 37° C. (CYP1A2-15 min; CYP2C9-45 min; CYP2C19, 2D6 and 3A4-30 min) and read in a Tecan Safire 2 plate reader (CYP1A2, 2C19 and 3A4 409 ex/460 em; CYP2C9 and 2D6 409 ex/530 em). The signal versus compound concentration is used to determine the IC50. The enzymes and substrates for this assay are obtained from BD Biosciences.

CYP2D6 = CYP2D6 (Homo sapiens, UniProt P10635); experiment: CYP2D6 inhibition (fluorescent substrate AMMC); type: in vitro ADME; details: read-out: Cyp IC50 2D6
Sequence of CYP2D6 (P10635 whole entry): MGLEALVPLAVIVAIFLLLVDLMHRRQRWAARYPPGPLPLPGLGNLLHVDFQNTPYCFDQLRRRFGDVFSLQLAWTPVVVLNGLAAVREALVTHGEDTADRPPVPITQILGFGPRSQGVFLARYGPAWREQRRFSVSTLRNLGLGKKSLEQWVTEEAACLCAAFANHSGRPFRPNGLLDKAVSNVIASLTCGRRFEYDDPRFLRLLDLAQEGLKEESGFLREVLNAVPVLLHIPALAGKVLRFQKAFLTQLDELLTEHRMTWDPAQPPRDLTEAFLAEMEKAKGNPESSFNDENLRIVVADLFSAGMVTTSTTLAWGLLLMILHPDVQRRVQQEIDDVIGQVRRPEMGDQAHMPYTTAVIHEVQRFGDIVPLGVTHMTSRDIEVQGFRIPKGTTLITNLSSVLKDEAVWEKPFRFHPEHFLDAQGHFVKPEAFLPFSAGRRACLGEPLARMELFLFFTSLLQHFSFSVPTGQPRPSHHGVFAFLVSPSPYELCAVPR
Experimental: as §1

T1 sequence (P04629 510-781): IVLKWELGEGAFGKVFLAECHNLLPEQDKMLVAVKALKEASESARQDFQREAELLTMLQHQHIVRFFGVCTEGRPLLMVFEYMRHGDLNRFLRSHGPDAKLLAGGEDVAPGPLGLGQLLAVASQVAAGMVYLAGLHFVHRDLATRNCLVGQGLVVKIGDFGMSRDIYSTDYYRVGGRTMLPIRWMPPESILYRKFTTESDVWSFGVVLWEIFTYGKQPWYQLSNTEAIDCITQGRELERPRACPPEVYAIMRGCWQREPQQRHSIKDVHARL

| SMILES | IC50 (BCR-NTRK1 BaF3 cells) [µM] | IC50 (CYP1A2) [µM] | IC50 (CYP2D6) [µM] |
| --- | --- | --- | --- |
| O=C(c1ccc(NC2CCC(F)(F)CC2)nc1F)c1c[nH]c2ncnc(NC3CC3)c12 [Compound P-4062, [4-(cyclopropylamino)-7H-pyrrolo[2,3-d]pyrimidin-5-yl]-[6-[(4,4-difluorocyclohexyl)amino]-2-fluoro-3-pyridyl]methanone] | < 0.01 | > 10 | > 10 |
| CNc1ncnc2[nH]cc(C(=O)c3ccc(NC4CCC(F)(F)CC4)nc3F)c12 [Compound P-4063, [6-[(4,4-difluorocyclohexyl)amino]-2-fluoro-3-pyridyl]-[4-(methylamino)-7H-pyrrolo[2,3-d]pyrimidin-5-yl]methanone] | < 0.01 | > 10 | > 10 |
| CCc1ccc(Nc2ccc(C(=O)c3c[nH]c4ncnc(NCC(C)(C)O)c34)c(F)n2)cn1 [Compound P-4064, [6-[(6-ethyl-3-pyridyl)amino]-2-fluoro-3-pyridyl]-[4-[(2-hydroxy-2-methyl-propyl)amino]-7H-pyrrolo[2,3-d]pyrimidin-5-yl]methanone] | < 0.1 | > 10 | > 10 |
| CCc1ccc(Nc2ccc(C(=O)c3c[nH]c4ncnc(N)c34)c(F)n2)cn1 [Compound P-4065, (4-amino-7H-pyrrolo[2,3-d]pyrimidin-5-yl)-[6-[(6-ethyl-3-pyridyl)amino]-2-fluoro-3-pyridyl]methanone] | < 0.1 | > 10 | > 10 |
| COc1ccc(Nc2ccc(C(=O)c3c[nH]c4ncnc(NC(C)C)c34)c(F)n2)cn1 [Compound P-4066, [2-fluoro-6-[(6-methoxy-3-pyridyl)amino]-3-pyridyl]-[4-(isopropylamino)-7H-pyrrolo[2,3-d]pyrimidin-5-yl]methanone] | < 0.01 | > 10 | > 10 |
| COc1ccc(Nc2ccc(C(=O)c3c[nH]c4ncnc(NCC5CC5)c34)c(F)n2)cn1 [Compound P-4067, [4-(cyclopropylmethylamino)-7H-pyrrolo[2,3-d]pyrimidin-5-yl]-[2-fluoro-6-[(6-methoxy-3-pyridyl)amino]-3-pyridyl]methanone] | < 0.01 | > 10 | > 10 |
| CCCNc1ncnc2[nH]cc(C(=O)c3ccc(Nc4ccc(OC)nc4)nc3F)c12 [Compound P-4068, [2-fluoro-6-[(6-methoxy-3-pyridyl)amino]-3-pyridyl]-[4-(propylamino)-7H-pyrrolo[2,3-d]pyrimidin-5-yl]methanone] | < 0.01 | > 10 | > 10 |
| COc1ccc(Nc2ccc(C(=O)c3c[nH]c4ncnc(N5CCCCC5)c34)c(F)n2)cn1 [Compound P-4069, [2-fluoro-6-[(6-methoxy-3-pyridyl)amino]-3-pyridyl]-[4-(1-piperidyl)-7H-pyrrolo[2,3-d]pyrimidin-5-yl]methanone] | > 1 | > 10 | > 10 |
| COc1ccc(Nc2ccc(C(=O)c3c[nH]c4ncnc(N5CCOCC5)c34)c(F)n2)cn1 [Compound P-4070, [2-fluoro-6-[(6-methoxy-3-pyridyl)amino]-3-pyridyl]-(4-morpholino-7H-pyrrolo[2,3-d]pyrimidin-5-yl)methanone] | > 1 | > 10 | > 10 |

Next, values leading:

| IC50 (BCR-NTRK1 BaF3 cells) [µM] | IC50 (CYP1A2) [µM] | IC50 (CYP2D6) [µM] | SMILES |
| --- | --- | --- | --- |
| < 0.1 | > 10 | > 10 | COc1ccc(Nc2ccc(C(=O)c3c[nH]c4ncnc(NCc5ccc(C(F)(F)F)nc5)c34)c(F)n2)cn1 [Compound P-4071, [2-fluoro-6-[(6-methoxy-3-pyridyl)amino]-3-pyridyl]-[4-[[6-(trifluoromethyl)-3-pyridyl]methylamino]-7H-pyrrolo[2,3-d]pyrimidin-5-yl]methanone] |
| < 0.01 | > 10 | 5 to 10 | COc1ccc(Nc2ccc(C(=O)c3c[nH]c4ncnc(N[C@@H](C)c5ccc(F)cc5)c34)c(F)n2)cn1 [Compound P-4072, [2-fluoro-6-[(6-methoxy-3-pyridyl)amino]-3-pyridyl]-[4-[[(1S)-1-(4-fluorophenyl)ethyl]amino]-7H-pyrrolo[2,3-d]pyrimidin-5-yl]methanone] |
| < 0.1 | > 10 | > 10 | COc1ccc(Nc2ccc(C(=O)c3c[nH]c4ncnc(NCC5CCCO5)c34)c(F)n2)cn1 (stereo not drawn) [Compound P-4073, [2-fluoro-6-[(6-methoxy-3-pyridyl)amino]-3-pyridyl]-[4-(tetrahydrofuran-2-ylmethylamino)-7H-pyrrolo[2,3-d]pyrimidin-5-yl]methanone] |
| < 0.1 | > 10 | > 10 | CCN1CCC(Nc2ncnc3[nH]cc(C(=O)c4ccc(Nc5ccc(OC)nc5)nc4F)c23)CC1 [Compound P-4074, [4-[(1-ethyl-4-piperidyl)amino]-7H-pyrrolo[2,3-d]pyrimidin-5-yl]-[2-fluoro-6-[(6-methoxy-3-pyridyl)amino]-3-pyridyl]methanone] |
| < 0.01 | > 10 | > 10 | COc1ccc(Nc2ccc(C(=O)c3c[nH]c4ncnc(NC5CCCC5)c34)c(F)n2)cn1 [Compound P-4075, [4-(cyclopentylamino)-7H-pyrrolo[2,3-d]pyrimidin-5-yl]-[2-fluoro-6-[(6-methoxy-3-pyridyl)amino]-3-pyridyl]methanone] |
| < 0.01 | > 10 | > 10 | COc1ccc(Nc2ccc(C(=O)c3c[nH]c4ncnc(NC5CCC5)c34)c(F)n2)cn1 [Compound P-4076, [4-(cyclobutylamino)-7H-pyrrolo[2,3-d]pyrimidin-5-yl]-[2-fluoro-6-[(6-methoxy-3-pyridyl)amino]-3-pyridyl]methanone] |
